These are literature values, as cited in patent publication US20230265056A1, “CRYSTALLINE FORMS OF BENZAMIDE COMPOUND AND PROCESS FOR PREPARING THE SAME” (CRYSTAL PHARMATECH CO., LTD., priority 2020, published 2023).

For this series the following is noted: would covert to Form A under certain conditions; cited from earlier work.

`C=CC(=O)N(C)CCOc1c(N)ncnc1-c1cc(F)cc(NC(=O)c2ccc(C3CC3)cc2F)c1C` [Form B, N-(3-(6-amino-5-(2-(N-methylacrylamido)ethoxy)pyrimidin-4-yl)-5-fluoro-2-methylphenyl)-4-cyclopropyl-2-fluorobenzamide]: the Thermodynamic stability entry is “less thermodynamically stable”.
